Experimental data taken from ChEMBL document CHEMBL4350971, “Discovery of tropinone-thiazole derivatives as potent caspase 3/7 activators, and noncompetitive tyrosinase inhibitors with high antiproliferative activity: Rational design, one-pot tricomponent synthesis, and lipophilicity determination” (Eur J Med Chem, 2019).
Active and inactive are the calls of the source. The calls are words filed in the database; no cut-off is given here.

T1: Tyrosinase (Agaricus bisporus, UniProt O42713)
T1 sequence (O42713 whole entry): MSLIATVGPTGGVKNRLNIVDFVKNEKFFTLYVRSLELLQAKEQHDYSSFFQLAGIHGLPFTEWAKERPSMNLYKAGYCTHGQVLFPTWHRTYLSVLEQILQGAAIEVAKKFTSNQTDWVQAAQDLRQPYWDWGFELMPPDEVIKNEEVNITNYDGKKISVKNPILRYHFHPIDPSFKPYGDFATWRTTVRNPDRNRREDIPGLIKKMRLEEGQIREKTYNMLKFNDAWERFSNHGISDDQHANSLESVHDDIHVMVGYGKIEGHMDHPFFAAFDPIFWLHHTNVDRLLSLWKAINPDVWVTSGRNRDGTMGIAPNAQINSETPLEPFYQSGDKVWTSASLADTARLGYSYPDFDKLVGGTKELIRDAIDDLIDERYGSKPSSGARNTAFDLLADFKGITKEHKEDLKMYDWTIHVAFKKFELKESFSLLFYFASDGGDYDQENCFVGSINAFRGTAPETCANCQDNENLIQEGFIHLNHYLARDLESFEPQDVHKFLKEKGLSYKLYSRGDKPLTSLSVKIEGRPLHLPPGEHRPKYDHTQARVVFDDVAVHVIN

T2: Tyrosinase (Agaricus bisporus) (UniProt O42713)
T2 sequence (whole entry): T1 sequence (O42713 whole entry)

B1: Tyrosinase (Agaricus bisporus), O42713 (protein)
chain: T1 sequence (O42713 whole entry)

What was measured:
MV4-11 = test: Antiproliferative activity against human MV4-11 cells incubated for 72 hrs by MTT assay; assay type: functional, cell-based; conditions: MV4-11, 72 h
A549 [1] = test: Antiproliferative activity against human A549 cells incubated for 72 hrs by SRB assay; assay type: functional, cell-based; conditions: A549, 72 h
MCF7 [2] = test: Antiproliferative activity against human MCF7 cells incubated for 72 hrs by SRB assay; assay type: functional, cell-based; conditions: MCF7, 72 h
B16-F10 = test: Antiproliferative activity against mouse B16F10 cells incubated for 72 hrs by MTT assay; assay type: functional, cell-based; conditions: B16-F10, 72 h
BALB/3T3 = test: Antiproliferative activity against mouse BALB/3T3 cells incubated for 72 hrs by SRB assay; assay type: cell-based; conditions: BALB/3T3, 72 h
A549 [3] = test: Induction of apoptosis in human A549 cells assessed as fold increase in caspase 3/7 activation using Ac-DEVD-ACC as fluorogenic substrate at 5 ug/ml incubated for 72 hrs by fluorescence assay relative to control; assay type: functional
A549 [4] = test: Potency index, ratio of chlorambucil to ratio of test compound for induction of apoptosis in human A549 cells; assay type: functional
Tyrosinase = target: T1, Tyrosinase; test: Inhibition of mushroom tyrosinase using L-dopa as substrate incubated for 30 mins by spectrophotometric method
[5] = Lipophilicity, chromatographic lipophilicity index of the compound in methanol by UPLC-MS/MS; assay type: physicochemical
[6] = target: T2, Tyrosinase (Agaricus bisporus); test: Ratio of IC50 for kojic acid to IC50 for test compound for inhibition of mushroom tyrosinase using L-dopa as substrate incubated for 30 mins by spectrophotometric method
[7] = target: T2, Tyrosinase (Agaricus bisporus); test: Ratio of IC50 for ascorbic acid to IC50 for test compound for inhibition of mushroom tyrosinase using L-dopa as substrate incubated for 30 mins by spectrophotometric method
[8] = target: T2, Tyrosinase (Agaricus bisporus); test: Inhibition of mushroom tyrosinase assessed as reduction in peak intensity at 25 mM using L-dopa as substrate incubated for 30 mins by UV-vis spectra analysis
MCF7 [9] = test: Antiproliferative activity against human MCF7 cells reduction in cell viability relative to control; assay type: functional
A549 [10] = test: Potency index, ratio of camptothecin to ratio of test compound for induction of apoptosis in human A549 cells; assay type: functional
[11] = target: T2, Tyrosinase (Agaricus bisporus); test: Inhibition of mushroom tyrosinase assessed as reduction in peak intensity at 15 mM using L-dopa as substrate incubated for 30 mins by UV-vis spectra analysis
HCT-116 = test: Antiproliferative activity against human HCT116 cells by MTT assay; assay type: functional, cell-based
MCF7 [12] = test: Antiproliferative activity against human MCF7 cells reduction in cell viability; assay type: functional, cell-based
HL-60 = test: Antiproliferative activity against human HL60 cells incubated for 48 hrs by MTS assay; assay type: functional, cell-based; conditions: HL-60, 48 h
[13] = compound: CN1[C@@H]2CC[C@H]1C/C(=N/Nc1nc(-c3ccc(Br)cc3)cs1)C2; test: (§1) Noncompetitive-inhibition of mushroom tyrosinase assessed as Vmax at 0.1 to 0.25 mM using 0.1 to 0.25 mM L-dopa as substrate incubated for 20 mins by Lineweaver-Burk double reciprocal plot analysis; conditions: Agaricus bisporus
[14] = compound: CN1[C@@H]2CC[C@H]1C/C(=N/Nc1nc(-c3ccc(C(F)(F)F)cc3)cs1)C2; test: as §1; conditions: Agaricus bisporus
[15] = compound: CN1[C@@H]2CC[C@H]1C/C(=N/Nc1nc(-c3ccc(Cl)c(Cl)c3)cs1)C2; test: as §1; conditions: Agaricus bisporus
[16] = compound: CN1[C@@H]2CC[C@H]1C/C(=N/Nc1nc(-c3ccc(Cl)cc3)cs1)C2; test: as §1; conditions: Agaricus bisporus
[17] = compound: CN1[C@@H]2CC[C@H]1C/C(=N/Nc1nc(-c3ccc(Cl)cc3Cl)cs1)C2; test: as §1; conditions: Agaricus bisporus
[18] = compound: CN1[C@@H]2CC[C@H]1C/C(=N/Nc1nc(-c3ccc(F)cc3)cs1)C2; test: as §1; conditions: Agaricus bisporus
[19] = compound: CN1[C@@H]2CC[C@H]1C/C(=N/Nc1nc(-c3ccc(N=[N+]=[N-])cc3)cs1)C2; test: as §1; conditions: Agaricus bisporus
[20] = compound: Cc1ccc(-c2csc(N/N=C3\C[C@H]4CC[C@@H](C3)N4C)n2)cc1; test: as §1; conditions: Agaricus bisporus
[21] = compound: CN1[C@@H]2CC[C@H]1C/C(=N/Nc1nc(-c3ccc(Br)cc3)cs1)C2; test: (§2) Noncompetitive-inhibition of mushroom tyrosinase assessed as Km at 0.1 to 0.25 mM using 0.1 to 0.25 mM L-dopa as substrate incubated for 20 mins by Lineweaver-Burk double reciprocal plot analysis; conditions: Agaricus bisporus
[22] = compound: CN1[C@@H]2CC[C@H]1C/C(=N/Nc1nc(-c3ccc(Cl)c(Cl)c3)cs1)C2; test: as §2; conditions: Agaricus bisporus
[23] = compound: CN1[C@@H]2CC[C@H]1C/C(=N/Nc1nc(-c3ccc(Cl)cc3)cs1)C2; test: as §2; conditions: Agaricus bisporus
[24] = compound: CN1[C@@H]2CC[C@H]1C/C(=N/Nc1nc(-c3ccc(Cl)cc3Cl)cs1)C2; test: as §2; conditions: Agaricus bisporus
[25] = compound: CN1[C@@H]2CC[C@H]1C/C(=N/Nc1nc(-c3ccc(N=[N+]=[N-])cc3)cs1)C2; test: as §2; conditions: Agaricus bisporus

| Molecule | IC50 (MV4-11) | IC50 (A549 [1]) | IC50 (MCF7 [2]) | IC50 (B16-F10) | IC50 (BALB/3T3) | IC50 (Tyrosinase) | logKw [5] | also measured |
| --- | --- | --- | --- | --- | --- | --- | --- | --- |
| CN1[C@@H]2CC[C@H]1C/C(=N/Nc1nc(-c3ccc(Br)cc3)cs1)C2 | 8.36 µM | 8.15 µM | 7.67 µM | 5.44 µM | 8.18 µM | 85 µM | -3.066 | fold change (FC) (A549 [3]): 3 - 5; Ratio (A549 [4]): 3 - 5 |
| O=C(O)CCCc1ccc(N(CCCl)CCCl)cc1 [CHLORAMBUCIL] | 8.55 µM | 72.8 µM | 69.3 µM | 12.6 µM | 69.7 µM |  |  |  |
| ClCCN(CCCl)c1ccc(/C=N/Nc2nc(-c3ccc(Br)cc3)cs2)cc1 | 1.27 µM |  |  |  |  |  |  |  |
| CN1[C@@H]2CC[C@H]1C/C(=N/Nc1nc(-c3ccc(Cl)cc3Cl)cs1)C2 | 6.82 µM | 7.47 µM | 7.05 µM | 5.48 µM | 8.16 µM | 3.51 µM | -3.79 | fold change (FC) (A549 [3]): 3 - 5; Ratio (A549 [4]): 3 - 5; Ratio IC50 [6]: 22; Ratio IC50 [7]: 120; inhibition [8]: Active |
| CN1[C@@H]2CC[C@H]1C/C(=N/Nc1nc(-c3ccc(Cl)cc3)cs1)C2 | 9.37 µM | 9.48 µM | 9.08 µM | > 14.4 µM | 9.2 µM | 133 µM | -2.844 | Activity (A549 [3]): inactive |
| CN1[C@@H]2CC[C@H]1CC(=O)C2 |  |  |  |  |  |  |  | inhibition (INH) (MCF7 [9]): 26.98% |
| Cc1ccc(-c2csc(N/N=C3\C[C@H]4CC[C@@H](C3)N4C)n2)cc1 | 10.1 µM | 17.3 µM | 11.1 µM | 10.6 µM | 10.2 µM | 101 µM | -2.654 | Activity (A549 [3]): inactive |
| CN1[C@@H]2CC[C@H]1C/C(=N/Nc1nc(-c3ccc(F)cc3)cs1)C2 | 13.7 µM | 42.8 µM | 19.2 µM | > 15.1 µM | 19.1 µM | 123 µM | -3.058 | Activity (A549 [3]): inactive |
| CN1[C@@H]2CC[C@H]1C/C(=N/Nc1nc(-c3ccc(Cl)c(Cl)c3)cs1)C2 | 8.29 µM | 7.89 µM | 7.19 µM | 5.43 µM | 8.58 µM | 3.22 µM | -4.024 | fold change (FC) (A549 [3]): 25; Ratio (A549 [10]): 2; Ratio (A549 [4]): 18; Ratio IC50 [6]: 22; Ratio IC50 [7]: 120; inhibition [11]: Active |
| CCN1[C@@H]2CC[C@H]1/C(=C\c1ccc(OC)c(OC)c1)C(=O)/C2=C/c1ccc(OC)c(OC)c1 |  |  |  |  |  |  |  | IC50 (HCT-116): 0.01 µM |
| CN1[C@@H]2CC[C@H]1C/C(=N/Nc1nc(-c3ccc(N=[N+]=[N-])cc3)cs1)C2 | 9.87 µM | 11 µM | 8.94 µM | 5.91 µM | 9.05 µM | 72.3 µM | -3.151 | Activity (A549 [3]): inactive |
| C/C(=N\Nc1nc(-c2ccc(Cl)c(Cl)c2)cs1)c1ccc(Nc2nc(N)nc(N)n2)cc1 | 3.56 µM |  |  |  |  |  |  | IC50 (MCF7 [12]): 7.59 µM |
| CN1[C@@H]2CC[C@H]1C/C(=N/Nc1nc(-c3ccc(C(F)(F)F)cc3)cs1)C2 | 6.68 µM | 7.54 µM | 6.02 µM | 5.86 µM | 8.41 µM | 33.7 µM | -3.25 | fold change (FC) (A549 [3]): 3 - 5; Ratio (A549 [4]): 3 - 5 |
| CN1[C@@H]2CC[C@H]1/C(=C\c1cccc(Br)c1)C(=O)/C2=C/c1cccc(Br)c1 |  |  |  |  |  |  |  | IC50 (HL-60): 3.39 µM; IC50 (MCF7 [12]): 13.1 µM |
| B1 |  |  |  |  |  |  |  | Vmax [13]: 2.53 abs/min; Vmax [14]: -12.8 abs/min; Vmax [15]: 5.59 abs/min; Vmax [16]: 6.24 abs/min; Vmax [17]: 0.0126 abs/min; Vmax [18]: -1.58 abs/min; Vmax [19]: 5.05 abs/min; Vmax [20]: -16.5 abs/min; Km [21]: 184 µM; Km [22]: 180 µM; Km [23]: 360 µM; Km [24]: 0.278 µM; Km [25]: 466 µM |
